Test results: PubChem BioAssay (NCI)
“And” between values parts separate entries of the source, which are not always exact repeats. Identical values can stand only once.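 Compound exposure: 48 hours, 5 concentrations, 96-well plates. Here, GI50 denotes the concentration required for 50% inhibition of growth. TGI is the concentration that stops growth completely.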

What was measured:
Assay in all cases: inhibition of tumour cell growth, NCI panel, 48 h
BT-549 breast = test system: BT-549 breast
CCRF-CEM leukemia = test system: CCRF-CEM leukemia
SK-MEL-2 melanoma = test system: SK-MEL-2 melanoma
NCI-H522 lung = test system: NCI-H522 lung
SNB-75 CNS = test system: SNB-75 CNS
OVCAR-8 ovarian = test system: OVCAR-8 ovarian
DU-145 prostate = test system: DU-145 prostate
SW-620 colon = test system: SW-620 colon
SF-268 CNS = test system: SF-268 CNS
MCF7 breast = test system: MCF7 breast
OVCAR-5 ovarian = test system: OVCAR-5 ovarian
SK-OV-3 ovarian = test system: SK-OV-3 ovarian
COLO 205 colon = test system: COLO 205 colon
LOX IMVI melanoma = test system: LOX IMVI melanoma
A549 NSCLC = test system: A549 NSCLC
HCT-15 colon = test system: HCT-15 colon
MOLT-4 leukemia = test system: MOLT-4 leukemia
HOP-92 NSCLC = test system: HOP-92 NSCLC
786-0 renal = test system: 786-0 renal
SN12C renal = test system: SN12C renal
SF-295 CNS = test system: SF-295 CNS
HS 578T breast = test system: HS 578T breast
OVCAR-3 ovarian = test system: OVCAR-3 ovarian
MDA-MB-435 = test system: MDA-MB-435
ACHN renal = test system: ACHN renal
UO-31 renal = test system: UO-31 renal
M14 melanoma = test system: M14 melanoma
MALME-3M melanoma = test system: MALME-3M melanoma
UACC-257 melanoma = test system: UACC-257 melanoma
CAKI-1 renal = test system: CAKI-1 renal
HT29 colon = test system: HT29 colon
NCI-H23 lung = test system: NCI-H23 lung
RPMI-8226 leukemia = test system: RPMI-8226 leukemia
EKVX NSCLC = test system: EKVX NSCLC
SK-MEL-28 melanoma = test system: SK-MEL-28 melanoma
SR leukemia = test system: SR leukemia
TK-10 renal = test system: TK-10 renal
SNB-19 CNS = test system: SNB-19 CNS
NCI-H460 lung = test system: NCI-H460 lung
U251 CNS = test system: U251 CNS
K-562 leukemia = test system: K-562 leukemia
NCI/ADR-RES ovarian = test system: NCI/ADR-RES ovarian
HCC-2998 colon = test system: HCC-2998 colon
HCT-116 colon = test system: HCT-116 colon
HL-60(TB) leukemia = test system: HL-60(TB) leukemia
OVCAR-4 ovarian = test system: OVCAR-4 ovarian
SF-539 CNS = test system: SF-539 CNS
A498 renal = test system: A498 renal
KM12 colon = test system: KM12 colon
UACC-62 melanoma = test system: UACC-62 melanoma
HOP-62 NSCLC = test system: HOP-62 NSCLC
SK-MEL-5 melanoma = test system: SK-MEL-5 melanoma
NCI-H226 lung = test system: NCI-H226 lung
T-47D breast = test system: T-47D breast
PC-3 prostate = test system: PC-3 prostate
MDA-MB-231 breast = test system: MDA-MB-231 breast
RXF 393 renal = test system: RXF 393 renal

CC(C)c1cc(C(=O)N2Cc3ccc(CN4CCN(C)CC4)cc3C2)c(O)cc1O
GI50 (BT-549 breast): 15.9 µM and 2.39 µM
TGI (BT-549 breast): > 100 µM and 30.4 µM
GI50 (CCRF-CEM leukemia): 0.0737 µM and 0.106 µM
TGI (CCRF-CEM leukemia): > 100 µM and 30.2 µM
GI50 (SK-MEL-2 melanoma): 0.736 µM and 0.71 µM
TGI (SK-MEL-2 melanoma): 4.78 µM and 20.1 µM
GI50 (NCI-H522 lung): 0.0454 µM and 0.291 µM
TGI (NCI-H522 lung): 3.2 µM and 18 µM
GI50 (SNB-75 CNS): 1.27 µM and 2.19 µM
TGI (SNB-75 CNS): 46.7 µM and > 57.3 µM
GI50 (OVCAR-8 ovarian): 0.0604 µM and 0.3 µM
TGI (OVCAR-8 ovarian): > 100 µM
GI50 (DU-145 prostate): 0.0741 µM and 0.0553 µM
TGI (DU-145 prostate): 24.4 µM and 18.8 µM
GI50 (SW-620 colon): 0.0376 µM and 0.0557 µM
TGI (SW-620 colon): 23.6 µM and 14.8 µM
TGI (SF-268 CNS): 59.1 µM and 54.3 µM
GI50 (MCF7 breast): 0.0254 µM and 0.0484 µM
TGI (MCF7 breast): 24.1 µM and 30.5 µM
TGI (OVCAR-5 ovarian): > 100 µM
GI50 (SK-OV-3 ovarian): 0.0315 µM and 0.0644 µM
TGI (SK-OV-3 ovarian): 54 µM and 18.8 µM
GI50 (COLO 205 colon): 0.0422 µM and 0.0444 µM
GI50 (LOX IMVI melanoma): 0.055 µM and 0.177 µM
TGI (LOX IMVI melanoma): 0.369 µM and 2.52 µM
GI50 (A549 NSCLC): 0.044 µM and 0.238 µM
TGI (A549 NSCLC): > 46 µM and 37.1 µM
GI50 (HCT-15 colon): 0.0622 µM and 0.145 µM
TGI (HCT-15 colon): > 100 µM and 21.8 µM
GI50 (MOLT-4 leukemia): 0.0473 µM and 0.177 µM
TGI (MOLT-4 leukemia): > 66.4 µM and 20.7 µM
GI50 (HOP-92 NSCLC): 0.617 µM and 0.498 µM
TGI (HOP-92 NSCLC): 35.3 µM and 11 µM
GI50 (786-0 renal): 1.93 µM and 0.64 µM
TGI (786-0 renal): 30.5 µM and 21 µM
GI50 (SN12C renal): 0.106 µM and 0.498 µM
TGI (SN12C renal): > 100 µM
GI50 (SF-295 CNS): 0.0371 µM and 0.158 µM
TGI (SF-295 CNS): 2.06 µM and 3.24 µM
GI50 (HS 578T breast): 0.716 µM and 1.87 µM
TGI (HS 578T breast): 35.3 µM and 43.9 µM
GI50 (OVCAR-3 ovarian): 0.0793 µM and 0.452 µM
TGI (OVCAR-3 ovarian): 23.4 µM and 20.9 µM
GI50 (MDA-MB-435): 0.0514 µM and 0.137 µM
TGI (MDA-MB-435): 21.1 µM and 13.4 µM
GI50 (ACHN renal): 0.0661 µM and 0.21 µM
TGI (ACHN renal): > 100 µM
GI50 (UO-31 renal): 0.0591 µM and 0.296 µM
TGI (UO-31 renal): 23.6 µM and 18.1 µM
GI50 (M14 melanoma): 0.0659 µM and 0.334 µM
TGI (M14 melanoma): 15.6 µM and 14.6 µM
GI50 (MALME-3M melanoma): 0.0403 µM and 0.271 µM
TGI (MALME-3M melanoma): 1.26 µM and 1.66 µM
GI50 (UACC-257 melanoma): 0.0954 µM and 0.484 µM
TGI (UACC-257 melanoma): 4.46 µM and 15.2 µM
GI50 (CAKI-1 renal): 0.0522 µM and 0.512 µM
GI50 (HT29 colon): 0.0428 µM and 0.058 µM
TGI (HT29 colon): > 32.8 µM and 12.6 µM
GI50 (NCI-H23 lung): 0.0606 µM and 0.458 µM
TGI (NCI-H23 lung): 97.4 µM and > 53.9 µM
TGI (RPMI-8226 leukemia): > 100 µM and 30.2 µM
GI50 (EKVX NSCLC): 0.983 µM and 1.27 µM
TGI (EKVX NSCLC): > 100 µM
GI50 (SK-MEL-28 melanoma): 0.0983 µM and 0.536 µM
TGI (SK-MEL-28 melanoma): 18.3 µM and 15.8 µM
GI50 (SR leukemia): 0.0371 µM and 0.0593 µM
TGI (SR leukemia): 84 µM and 17.1 µM
GI50 (TK-10 renal): 0.0428 µM and 0.381 µM
TGI (TK-10 renal): 49.8 µM
GI50 (SNB-19 CNS): 0.872 µM and 0.847 µM
TGI (SNB-19 CNS): > 100 µM
GI50 (NCI-H460 lung): 0.0311 µM and 0.0534 µM
TGI (NCI-H460 lung): 16.2 µM and 11.6 µM
GI50 (U251 CNS): 0.0863 µM and 0.32 µM
TGI (U251 CNS): > 50.5 µM and 19.6 µM
GI50 (K-562 leukemia): 0.0472 µM and 0.207 µM
TGI (K-562 leukemia): > 100 µM and 16.2 µM
GI50 (NCI/ADR-RES ovarian): 0.245 µM and 0.779 µM
TGI (NCI/ADR-RES ovarian): > 90 µM
GI50 (HCC-2998 colon): 0.0455 µM and 0.213 µM
GI50 (HCT-116 colon): 0.0394 µM and 0.0818 µM
TGI (HCT-116 colon): 15.3 µM and 13.4 µM
GI50 (HL-60(TB) leukemia): 0.0479 µM and 0.212 µM
TGI (HL-60(TB) leukemia): 16.2 µM and 11.6 µM
GI50 (OVCAR-4 ovarian): 5.79 µM and 6.39 µM
TGI (OVCAR-4 ovarian): > 100 µM
GI50 (SF-539 CNS): 1.5 µM and 1 µM
TGI (SF-539 CNS): 24.3 µM and 18 µM
TGI (A498 renal): > 100 µM and 15.2 µM
GI50 (KM12 colon): 0.0291 µM and 0.0772 µM
GI50 (UACC-62 melanoma): 0.0697 µM and 0.286 µM
TGI (UACC-62 melanoma): 15.4 µM and 3.91 µM
GI50 (HOP-62 NSCLC): 0.128 µM and 0.656 µM
TGI (HOP-62 NSCLC): > 92.2 µM
GI50 (SK-MEL-5 melanoma): 0.163 µM and 0.459 µM
TGI (SK-MEL-5 melanoma): 17.3 µM and 16.5 µM
GI50 (NCI-H226 lung): 0.414 µM and 0.553 µM
TGI (NCI-H226 lung): > 60.3 µM and 50.6 µM
GI50 (T-47D breast): 0.0631 µM and 0.342 µM
TGI (T-47D breast): 31.2 µM and 34.8 µM
GI50 (PC-3 prostate): 1.97 µM and 0.483 µM
TGI (PC-3 prostate): > 100 µM
GI50 (MDA-MB-231 breast): 0.39 µM and 0.443 µM
TGI (MDA-MB-231 breast): 24.8 µM and 13.7 µM
GI50 (RXF 393 renal): 0.916 µM and 2.36 µM
TGI (RXF 393 renal): 30.5 µM and 28.8 µM
